# In PMC6271277, “^68Ga-Labeled Cyclic NGR Peptide for MicroPET Imaging of CD13 Receptor Expression” (Molecules, 2014):
# Assays:
# [1] = target: T1, CD13 receptor (Homo sapiens, UniProt P15144); assay: Cell-based competitive binding assay against ^125I-NGR; settings: HT-1080 cells, competitor 10^-12 to 10^-5 M, gamma counter, n = 3; read-out: IC50, inhibition of ^125I-NGR binding to CD13 receptor
# T1 construct: endogenous in cells; host or cells: HT-1080 human fibrosarcoma cells
# Description: In vitro CD13 binding affinity and specificity of NOTA-G3-NGR were tested by a cell-based competitive assay. The binding of ^125I-NGR to CD13 receptors in HT-1080 cells can be inhibited by NOTA-G3-NGR in a dose-dependent manner (Figure 1b).
# In vitro CD13 receptor binding affinity and specificity of NOTA-G3-NGR in HT-1080 cells were assessed using a cell-based competitive assay. ^125I-labeled linear NGR peptide (sequence H-Tyr-Gly-Gly-Cys-Asn-Gly-Arg-Cys-OH) was prepared using the Iodogen method and used as the radioligand for CD13. The non-radiolabeled NOTA-G3-NGR peptide (concentrations at a range from 10^−12 to 10^−5 M) was co-incubated with ^125I-NGR in HT-1080 cells. After washing with ice-cold binding buffer three times, the HT-1080 cells were lysed in 200 µL of lysis buffer. The cell-associated radioactivity was then measured using a gamma counter (Beijing PET CO., Ltd., Beijing, China). The IC50 (50% inhibitory concentration) value was obtained by fitting the data using nonlinear regression with GraphPad Prism (GraphPad Software, San Diego, CA, USA). Experiments were performed in triplicate.
# [2] = physchem; format: physicochemical; settings: pH 7.4
# Description: The octanol–water partition coefficient value was determined by measuring the distribution (logD) of radioactivity in octanol and PBS. Approximately 5 KBq of ^68Ga- NOTA-G3-NGR (2 μL) was added to a vial containing 0.5 mL of octanol and 0.5 mL of PBS (pH = 7.4). The mixture was then vortexed vigorously for 15 min. Subsequently, the mixture was centrifuged at 12,500 rpm for 5 min to ensure the complete separation of layers. Aliquots of the aqueous and octanol layers were collected, measured in a gamma counter (Beijing PET CO., Ltd., Beijing, China). The octanol–water partition coefficient value was then calculated (n = 5).
# T1 sequence (P15144 whole entry): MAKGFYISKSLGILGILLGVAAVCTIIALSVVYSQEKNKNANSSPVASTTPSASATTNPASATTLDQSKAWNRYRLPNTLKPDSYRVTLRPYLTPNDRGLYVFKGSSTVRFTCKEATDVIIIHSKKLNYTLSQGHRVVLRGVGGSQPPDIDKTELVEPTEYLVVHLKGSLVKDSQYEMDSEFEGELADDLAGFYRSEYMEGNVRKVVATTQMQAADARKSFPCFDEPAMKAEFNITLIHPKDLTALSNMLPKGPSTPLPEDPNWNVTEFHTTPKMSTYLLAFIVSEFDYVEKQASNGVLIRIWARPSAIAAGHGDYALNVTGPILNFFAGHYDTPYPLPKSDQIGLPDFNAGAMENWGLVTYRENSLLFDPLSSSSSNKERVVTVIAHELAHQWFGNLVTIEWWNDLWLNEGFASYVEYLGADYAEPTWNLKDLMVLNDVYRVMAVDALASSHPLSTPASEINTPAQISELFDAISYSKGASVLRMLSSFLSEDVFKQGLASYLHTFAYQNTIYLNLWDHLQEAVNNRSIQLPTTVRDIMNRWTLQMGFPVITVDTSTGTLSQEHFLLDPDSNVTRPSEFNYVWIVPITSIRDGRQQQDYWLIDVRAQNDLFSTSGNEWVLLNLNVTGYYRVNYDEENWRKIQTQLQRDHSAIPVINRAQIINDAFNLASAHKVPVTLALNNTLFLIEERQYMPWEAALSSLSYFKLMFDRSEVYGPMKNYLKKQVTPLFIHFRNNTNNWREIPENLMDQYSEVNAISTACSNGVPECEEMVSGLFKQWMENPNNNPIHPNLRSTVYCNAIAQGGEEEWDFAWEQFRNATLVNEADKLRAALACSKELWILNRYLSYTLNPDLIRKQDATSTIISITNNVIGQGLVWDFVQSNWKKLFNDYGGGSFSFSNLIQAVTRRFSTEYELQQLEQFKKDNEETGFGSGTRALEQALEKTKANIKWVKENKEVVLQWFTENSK
IC50 [1],Structure (SMILES),logD [2]
74.7 ± 3.91 nM,N=C(N)NCCC[C@@H]1NC(=O)CNC(=O)[C@H](CC(N)=O)NC(=O)[C@@H](NC(=O)CNC(=O)CNC(=O)CNC(=S)Nc2ccc(CC3CN(CC(=O)O)CCN(CC(=O)O)CCN3CC(=O)O)cc2)CSSC[C@@H](C(=O)O)NC1=O (some centres unmarked) [NOTA-G3-NGR],–
–,"N=C(N)NCCC[C@@H]1NC(=O)CNC(=O)[C@H](CC(N)=O)NC(=O)[C@@H](NC(=O)CNC(=O)CNC(=O)CNC(=S)Nc2ccc(CC3CN(CC(=O)O)CCN(CC(=O)O)CCN3CC(=O)O)cc2)CSSC[C@@H](C(=O)O)NC1=O (some centres unmarked) [^68Ga-NOTA-G3-NGR, metal not drawn]",-2.25 ± 0.17
